Values after ≈ are worked out from the molar mass of the structure shown. Where a SMILES comes first, the peptide text is derived from it.
Key:
E. faecalis ATCC 29212 = experiment: MIC, broth dilution; assay type: cell-based
Procedure: (§1) All experiments were repeated at least three times.
(§2) To study the influence of physiological ions on the antimicrobial activities of the peptides, The MICs of the peptides were also determined against the standard bacterial strains cultured in MHB containing various salts at their physiological concentrations (150 mM NaCl, 4.5 mM KCl, 1 mM MgCl2, 2 mM CaCl2, 6 μM NH4HCO3, and 4 μM FeCl3) ([Ma et al., 2016]).

[1] = system: human red blood cells (hRBCs); experiment: Hemolytic activity determination; assay type: cell-based; conditions: peptide 100 μg ml^–1; hRBCs in 0.9% sodium chloride, 37°C, 1 h, OD540, 1% Triton X-100 = 100%; three independent experiments
Procedure: Fresh human red blood cells (hRBCs) were collected in a sterile borosilicate glass tube covered with sodium citrate as the anticoagulating agent. […] Two-fold dilutions of the peptides were prepared in 0.9% sodium chloride to 100 μl and mixed with equal volumn of hRBC suspension to final peptide concentrations ranging from 12.5 to 200 μg ml^–1. After co-incubation at 37°C for 1 h, the samples were centrifuged (2,000 × g, 4°C, 20 min), and the supernatant (100 μl) was taken for optical density (OD540) measurements (Asample). The hRBCs assayed with 0.9% sodium chloride (Ablank) or 1% Triton X-100 (Apositive) were applied as 0% and 100% hemolysis, respectively. Three independent experiments were performed and the percent hemolysis was calculated according to the following equation ([Yin et al., 2012]; [Li et al., 2016]):
Hemolysis(%)=100*(Asample-Ablank)/(Apositive-Ablank)

[2] = system: K. pneumoniae ATCC 700603; experiment: MIC, broth dilution; assay type: cell-based, Klebsiella pneumoniae
Procedure: as §1, §2

S. aureus ATCC29213 = experiment: MIC, broth dilution; assay type: cell-based, Staphylococcus aureus
Procedure: as §1, §2

[3] = system: ESBL-producing E. coli, CRE- and MDR P. aeruginosa, CRE- and MDR A. baumannii; experiment: MIC, summary over resistant gram-negative strains; assay type: cell-based; conditions: summary of Table 4
Description: as §1

E. coli ATCC25922 = experiment: MIC, broth dilution; assay type: cell-based, Escherichia coli
K. pneumoniae 9126 = experiment: MIC, broth dilution; assay type: cell-based, Klebsiella pneumoniae; conditions: CLSI broth dilution, MHB, 37°C, 20 h, OD630, at least three repeats; clinical isolate, CRE
Description: as §1

E. coli ATCC35218 = experiment: MIC, broth dilution; assay type: cell-based, Escherichia coli; conditions: CLSI broth dilution, MHB, 37°C, 20 h, OD630, at least three repeats; standard strain
Description: as §1

E. coli 2687 = experiment: MIC, broth dilution; assay type: cell-based, Escherichia coli; conditions: CLSI broth dilution, MHB, 37°C, 20 h, OD630, at least three repeats; clinical isolate, ESBL
Description: as §1

E. coli 2678 = experiment: MIC, broth dilution; assay type: cell-based, Escherichia coli; conditions: CLSI broth dilution, MHB, 37°C, 20 h, OD630, at least three repeats; clinical isolate, ESBL
Description: as §1

P. aeruginosa 9042 = experiment: MIC, broth dilution; assay type: cell-based, Pseudomonas aeruginosa; conditions: CLSI broth dilution, MHB, 37°C, 20 h, OD630, at least three repeats; clinical isolate
Description: as §1

P. aeruginosa 9014 = experiment: MIC, broth dilution; assay type: cell-based, Pseudomonas aeruginosa; conditions: CLSI broth dilution, MHB, 37°C, 20 h, OD630, at least three repeats; clinical isolate, CRE, MDR
Description: as §1

A. baumannii 13079 = experiment: MIC, broth dilution; assay type: cell-based, Acinetobacter baumannii; conditions: CLSI broth dilution, MHB, 37°C, 20 h, OD630, at least three repeats; clinical isolate, CRE, MDR
Description: as §1

A. baumannii 906 = experiment: MIC, broth dilution; assay type: cell-based, Acinetobacter baumannii; conditions: CLSI broth dilution, MHB, 37°C, 20 h, OD630, at least three repeats; clinical isolate, CRE, MDR
Description: as §1

A. baumannii 13012 = experiment: MIC, broth dilution; assay type: cell-based, Acinetobacter baumannii; conditions: CLSI broth dilution, MHB, 37°C, 20 h, OD630, at least three repeats; clinical isolate, CRE, MDR
Description: as §1

A. baumannii 9068 = experiment: MIC, broth dilution; assay type: cell-based, Acinetobacter baumannii; conditions: CLSI broth dilution, MHB, 37°C, 20 h, OD630, at least three repeats; clinical isolate, CRE, MDR
Description: as §1

S. aureus ATCC 25923 = experiment: MIC, broth dilution; assay type: cell-based, Staphylococcus aureus; conditions: CLSI broth dilution, MHB, 37°C, 20 h, OD630, at least three repeats; standard strain
Description: as §1

S. aureus 9124 = experiment: MIC, broth dilution; assay type: cell-based, Staphylococcus aureus; conditions: CLSI broth dilution, MHB, 37°C, 20 h, OD630, at least three repeats; clinical isolate, MRSA
Description: as §1

S. aureus 4188 = experiment: MIC, broth dilution; assay type: cell-based, Staphylococcus aureus; conditions: CLSI broth dilution, MHB, 37°C, 20 h, OD630, at least three repeats; clinical isolate, penicillin-resistant
Description: as §1

S. aureus 1176 = experiment: MIC, broth dilution; assay type: cell-based, Staphylococcus aureus; conditions: CLSI broth dilution, MHB, 37°C, 20 h, OD630, at least three repeats; clinical isolate
Description: as §1

E. faecium 898 = experiment: MIC, broth dilution; assay type: cell-based, Enterococcus faecium; conditions: CLSI broth dilution, MHB, 37°C, 20 h, OD630, at least three repeats; clinical isolate
Description: as §1

P. aeruginosa ATCC 27853 = experiment: MIC, broth dilution; assay type: cell-based, Pseudomonas aeruginosa
Procedure: as §1, §2

[4] = CLSI broth dilution, MHB, 37°C, 20 h, OD630, at least three repeats, standard strain
[5] = salt sensitivity test, MHB, control without addition of salt ions

What does the source list for `CC[C@H](C)[C@H](NC(=O)[C@H](CCCCN)NC(=O)[C@H](CCCCN)NC(=O)[C@@H](NC(=O)[C@@H](N)Cc1ccccc1)[C@@H](C)CC)C(=O)N[C@@H](C)C(=O)N[C@@H](CCCCN)C(=O)N[C@@H](CC(C)C)C(=O)N[C@@H](CC(C)C)C(=O)N[C@@H](CCCCN)C(=O)N[C@@H](CCCCN)C(=O)N[C@H](C(=O)N[C@@H](Cc1ccccc1)C(N)=O)[C@@H](C)CC` [BmKn2-7K] (H-FIKKIAKLLKKIF-NH2)?
MIC (E. faecalis ATCC 29212; [4]): 5 µg/mL (≈ 3.15 µM); MIC (E. faecalis ATCC 29212; MHB with 4 μM FeCl3): 20 µg/mL (≈ 12.6 µM); MIC (E. faecalis ATCC 29212; MHB with 6 μM NH4HCO3): 20 µg/mL (≈ 12.6 µM); MIC (E. faecalis ATCC 29212; MHB with 1 mM MgCl2): 20 µg/mL (≈ 12.6 µM); MIC (E. faecalis ATCC 29212; MHB with 2 mM CaCl2): 10 µg/mL (≈ 6.29 µM); MIC (E. faecalis ATCC 29212; MHB with 4.5 mM KCl): 20 µg/mL (≈ 12.6 µM); MIC (E. faecalis ATCC 29212; MHB with 150 mM NaCl): 10 µg/mL (≈ 6.29 µM); MIC (E. faecalis ATCC 29212; [5]): 5 µg/mL; percent hRBC hemolysis [1]: 12.2%; MIC [2, 4]: 10 µg/mL (≈ 6.29 µM); MIC ([2]; MHB with 4 μM FeCl3): 10 µg/mL (≈ 6.29 µM); MIC ([2]; MHB with 6 μM NH4HCO3): 10 µg/mL (≈ 6.29 µM); MIC ([2]; MHB with 1 mM MgCl2): 10 µg/mL (≈ 6.29 µM); MIC ([2]; MHB with 2 mM CaCl2): 10 µg/mL (≈ 6.29 µM); MIC ([2]; MHB with 4.5 mM KCl): 10 µg/mL (≈ 6.29 µM); MIC ([2]; MHB with 150 mM NaCl): 5 µg/mL (≈ 3.15 µM); MIC [2, 5]: 10 µg/mL; MIC (S. aureus ATCC29213; MHB with 4 μM FeCl3): 5 µg/mL (≈ 3.15 µM); MIC (S. aureus ATCC29213; MHB with 6 μM NH4HCO3): 5 µg/mL (≈ 3.15 µM); MIC (S. aureus ATCC29213; MHB with 1 mM MgCl2): 5 µg/mL (≈ 3.15 µM); MIC (S. aureus ATCC29213; MHB with 2 mM CaCl2): 5 µg/mL (≈ 3.15 µM); MIC (S. aureus ATCC29213; MHB with 4.5 mM KCl): 5 µg/mL (≈ 3.15 µM); MIC (S. aureus ATCC29213; MHB with 150 mM NaCl): 5 µg/mL (≈ 3.15 µM); MIC (S. aureus ATCC29213; [5]): 5 µg/mL; MIC against ESBL E. coli, CRE/MDR P. aeruginosa, CRE/MDR A. baumannii [3]: 2.5–10 μg ml^–1; MIC (E. coli ATCC25922; CLSI broth dilution, MHB, 6.25 × 10^5 cfu per ml, 37°C, 20 h, OD630, at least three repeats): 5 µg/mL (≈ 3.15 µM); MIC (E. coli ATCC25922; MHB with 4 μM FeCl3): 20 µg/mL (≈ 12.6 µM); MIC (E. coli ATCC25922; MHB with 6 μM NH4HCO3): 20 µg/mL (≈ 12.6 µM); MIC (K. pneumoniae 9126): 5 µg/mL (≈ 3.15 µM); MIC (E. coli ATCC35218): 10 µg/mL (≈ 6.29 µM); MIC (E. coli 2687): 10 µg/mL (≈ 6.29 µM); MIC (E. coli 2678): 10 µg/mL (≈ 6.29 µM); MIC (P. aeruginosa 9042): 5 µg/mL (≈ 3.15 µM); MIC (P. aeruginosa 9014): 5 µg/mL (≈ 3.15 µM); MIC (A. baumannii 13079): 2.5 µg/mL (≈ 1.57 µM); MIC (A. baumannii 906): 2.5 µg/mL (≈ 1.57 µM); MIC (A. baumannii 13012): 2.5 µg/mL (≈ 1.57 µM); MIC (A. baumannii 9068): 2.5 µg/mL (≈ 1.57 µM); MIC (S. aureus ATCC 25923): 5 µg/mL (≈ 3.15 µM); MIC (S. aureus 9124): 2.5 µg/mL (≈ 1.57 µM); MIC (S. aureus 4188): 2.5 µg/mL (≈ 1.57 µM); MIC (S. aureus 1176): 2.5 µg/mL (≈ 1.57 µM); MIC (E. faecium 898): 5 µg/mL (≈ 3.15 µM); MIC (P. aeruginosa ATCC 27853; [4]): 5 µg/mL (≈ 3.15 µM); MIC (P. aeruginosa ATCC 27853; MHB with 4 μM FeCl3): 20 µg/mL (≈ 12.6 µM); MIC (P. aeruginosa ATCC 27853; MHB with 6 μM NH4HCO3): 20 µg/mL (≈ 12.6 µM)

Reference: article PMC8319832, “Fine-Tuning of Alkaline Residues on the Hydrophilic Face Provides a Non-toxic Cationic α-Helical Antimicrobial Peptide Against Antibiotic-Resistant ESKAPE Pathogens” (Frontiers in Microbiology, 2021)
